Measured values from PubChem BioAssay (NCI).
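Protocol summary: plate cells (96-well), add compound at 5 concentrations, incubate 48 h, interpolate endpoints linearly. TGI denotes the concentration required for complete inhibition of growth.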

Tests used:
Test in all cases: growth of human tumour cells (NCI), 48 h
SR leukemia = test system: SR leukemia
KM12 colon = test system: KM12 colon
EKVX NSCLC = test system: EKVX NSCLC
SN12C renal = test system: SN12C renal
RXF 393 renal = test system: RXF 393 renal
NCI-H226 lung = test system: NCI-H226 lung
HT29 colon = test system: HT29 colon
MDA-N = test system: MDA-N
HOP-62 NSCLC = test system: HOP-62 NSCLC
OVCAR-8 ovarian = test system: OVCAR-8 ovarian
A498 renal = test system: A498 renal
OVCAR-5 ovarian = test system: OVCAR-5 ovarian
SW-620 colon = test system: SW-620 colon
NCI/ADR-RES ovarian = test system: NCI/ADR-RES ovarian
OVCAR-3 ovarian = test system: OVCAR-3 ovarian
MALME-3M melanoma = test system: MALME-3M melanoma
NCI-H23 lung = test system: NCI-H23 lung
IGROV1 ovarian = test system: IGROV1 ovarian
UACC-257 melanoma = test system: UACC-257 melanoma
K-562 leukemia = test system: K-562 leukemia
U251 CNS = test system: U251 CNS
UACC-62 melanoma = test system: UACC-62 melanoma
CCRF-CEM leukemia = test system: CCRF-CEM leukemia
HCT-15 colon = test system: HCT-15 colon
SF-539 CNS = test system: SF-539 CNS
LOX IMVI melanoma = test system: LOX IMVI melanoma
PC-3 prostate = test system: PC-3 prostate
HCT-116 colon = test system: HCT-116 colon
MCF7 breast = test system: MCF7 breast
786-0 renal = test system: 786-0 renal
MDA-MB-231 breast = test system: MDA-MB-231 breast
NCI-H460 lung = test system: NCI-H460 lung
COLO 205 colon = test system: COLO 205 colon
DU-145 prostate = test system: DU-145 prostate
HS 578T breast = test system: HS 578T breast
SNB-19 CNS = test system: SNB-19 CNS
SK-MEL-5 melanoma = test system: SK-MEL-5 melanoma
ACHN renal = test system: ACHN renal
M14 melanoma = test system: M14 melanoma
TK-10 renal = test system: TK-10 renal
SF-295 CNS = test system: SF-295 CNS
T-47D breast = test system: T-47D breast
RPMI-8226 leukemia = test system: RPMI-8226 leukemia
BT-549 breast = test system: BT-549 breast
NCI-H522 lung = test system: NCI-H522 lung
MOLT-4 leukemia = test system: MOLT-4 leukemia
SK-MEL-2 melanoma = test system: SK-MEL-2 melanoma
SF-268 CNS = test system: SF-268 CNS
OVCAR-4 ovarian = test system: OVCAR-4 ovarian
CAKI-1 renal = test system: CAKI-1 renal
HCC-2998 colon = test system: HCC-2998 colon
HOP-92 NSCLC = test system: HOP-92 NSCLC
SK-OV-3 ovarian = test system: SK-OV-3 ovarian
UO-31 renal = test system: UO-31 renal
HL-60(TB) leukemia = test system: HL-60(TB) leukemia
A549 NSCLC = test system: A549 NSCLC
MDA-MB-435 = test system: MDA-MB-435
SK-MEL-28 melanoma = test system: SK-MEL-28 melanoma
SNB-75 CNS = test system: SNB-75 CNS

`CCC(C#N)NC(=O)NC(C#N)CC` (configuration not stated) was tested, and the TGI (SR leukemia) was greater than 100 µM, the TGI (KM12 colon) was greater than 100 µM and the TGI (EKVX NSCLC) was greater than 100 µM. For the same compound, the TGI (SN12C renal) was greater than 100 µM, the TGI (RXF 393 renal) was greater than 100 µM and the TGI (NCI-H226 lung) was greater than 100 µM. For the same compound, the TGI (HT29 colon) was greater than 100 µM, the TGI (MDA-N) was greater than 100 µM and the TGI (HOP-62 NSCLC) was greater than 100 µM. It also gave a TGI (OVCAR-8 ovarian) greater than 100 µM, a TGI (A498 renal) greater than 100 µM and a TGI (OVCAR-5 ovarian) greater than 100 µM. The TGI (SW-620 colon) was greater than 100 µM, the TGI (NCI/ADR-RES ovarian) was greater than 100 µM and the TGI (OVCAR-3 ovarian) was greater than 100 µM. The TGI (MALME-3M melanoma) was greater than 100 µM, the TGI (NCI-H23 lung) was greater than 100 µM and the TGI (IGROV1 ovarian) was greater than 100 µM. It also gave a TGI (UACC-257 melanoma) greater than 100 µM, a TGI (K-562 leukemia) greater than 100 µM and a TGI (U251 CNS) greater than 100 µM. It also gave a TGI (UACC-62 melanoma) greater than 100 µM, a TGI (CCRF-CEM leukemia) greater than 100 µM and a TGI (HCT-15 colon) greater than 100 µM. It also gave a TGI (SF-539 CNS) greater than 100 µM, a TGI (LOX IMVI melanoma) greater than 100 µM and a TGI (PC-3 prostate) greater than 100 µM. It also gave a TGI (HCT-116 colon) greater than 100 µM, a TGI (MCF7 breast) greater than 100 µM and a TGI (786-0 renal) greater than 100 µM. The TGI (MDA-MB-231 breast) was greater than 100 µM, the TGI (NCI-H460 lung) was greater than 100 µM and the TGI (COLO 205 colon) was greater than 100 µM. For the same compound, the TGI (DU-145 prostate) was greater than 100 µM, the TGI (HS 578T breast) was greater than 100 µM and the TGI (SNB-19 CNS) was greater than 100 µM. For the same compound, the TGI (SK-MEL-5 melanoma) was greater than 100 µM, the TGI (ACHN renal) was greater than 100 µM and the TGI (M14 melanoma) was greater than 100 µM. The TGI (TK-10 renal) was greater than 100 µM, the TGI (SF-295 CNS) was greater than 100 µM and the TGI (T-47D breast) was greater than 100 µM. For the same compound, the TGI (RPMI-8226 leukemia) was greater than 100 µM, the TGI (BT-549 breast) was greater than 100 µM and the TGI (NCI-H522 lung) was greater than 100 µM. It also gave a TGI (MOLT-4 leukemia) greater than 100 µM, a TGI (SK-MEL-2 melanoma) greater than 100 µM and a TGI (SF-268 CNS) greater than 100 µM. For the same compound, the TGI (OVCAR-4 ovarian) was greater than 100 µM, the TGI (CAKI-1 renal) was greater than 100 µM and the TGI (HCC-2998 colon) was greater than 100 µM. For the same compound, the TGI (HOP-92 NSCLC) was greater than 100 µM, the TGI (SK-OV-3 ovarian) was greater than 100 µM and the TGI (UO-31 renal) was greater than 100 µM. It also gave a TGI (HL-60(TB) leukemia) greater than 100 µM, a TGI (A549 NSCLC) greater than 100 µM and a TGI (MDA-MB-435) greater than 100 µM.
Work on `CCOC(=O)/C=C(/C(=O)OCC)n1ccc(N)nc1=O` yielded a TGI (SR leukemia) greater than 100 µM, a TGI (KM12 colon) greater than 100 µM and a TGI (EKVX NSCLC) greater than 100 µM. The TGI (SK-MEL-28 melanoma) was greater than 100 µM, the TGI (SN12C renal) was greater than 100 µM and the TGI (NCI-H226 lung) was greater than 100 µM. For the same compound, the TGI (HT29 colon) was greater than 100 µM, the TGI (MDA-N) was greater than 100 µM and the TGI (HOP-62 NSCLC) was greater than 100 µM. For the same compound, the TGI (OVCAR-8 ovarian) was greater than 100 µM, the TGI (OVCAR-5 ovarian) was greater than 100 µM and the TGI (SW-620 colon) was greater than 100 µM. The TGI (NCI/ADR-RES ovarian) was greater than 100 µM, the TGI (OVCAR-3 ovarian) was greater than 100 µM and the TGI (MALME-3M melanoma) was greater than 100 µM. For the same compound, the TGI (NCI-H23 lung) was greater than 100 µM, the TGI (IGROV1 ovarian) was greater than 100 µM and the TGI (UACC-257 melanoma) was greater than 100 µM. The TGI (K-562 leukemia) was greater than 100 µM, the TGI (U251 CNS) was greater than 100 µM and the TGI (UACC-62 melanoma) was greater than 100 µM. The TGI (SNB-75 CNS) was greater than 100 µM, the TGI (CCRF-CEM leukemia) was 76 µM and the TGI (HCT-15 colon) was greater than 100 µM. For the same compound, the TGI (SF-539 CNS) was greater than 100 µM, the TGI (LOX IMVI melanoma) was greater than 100 µM and the TGI (PC-3 prostate) was greater than 100 µM. It also gave a TGI (HCT-116 colon) greater than 100 µM, a TGI (MCF7 breast) greater than 100 µM and a TGI (786-0 renal) greater than 100 µM. For the same compound, the TGI (MDA-MB-231 breast) was greater than 100 µM, the TGI (NCI-H460 lung) was greater than 100 µM and the TGI (COLO 205 colon) was greater than 100 µM. The TGI (DU-145 prostate) was greater than 100 µM, the TGI (HS 578T breast) was greater than 100 µM and the TGI (SNB-19 CNS) was greater than 100 µM. It also gave a TGI (SK-MEL-5 melanoma) greater than 100 µM, a TGI (ACHN renal) greater than 100 µM and a TGI (M14 melanoma) greater than 100 µM. It also gave a TGI (TK-10 renal) greater than 100 µM, a TGI (SF-295 CNS) greater than 100 µM and a TGI (T-47D breast) greater than 100 µM. It also gave a TGI (RPMI-8226 leukemia) greater than 100 µM, a TGI (BT-549 breast) greater than 100 µM and a TGI (NCI-H522 lung) of 54.8 µM. The TGI (MOLT-4 leukemia) was greater than 100 µM, the TGI (SK-MEL-2 melanoma) was greater than 100 µM and the TGI (SF-268 CNS) was greater than 100 µM. For the same compound, the TGI (OVCAR-4 ovarian) was greater than 100 µM, the TGI (CAKI-1 renal) was greater than 100 µM and the TGI (HCC-2998 colon) was greater than 100 µM. It also gave a TGI (HOP-92 NSCLC) greater than 100 µM, a TGI (SK-OV-3 ovarian) greater than 100 µM and a TGI (UO-31 renal) greater than 100 µM. It also gave a TGI (HL-60(TB) leukemia) greater than 100 µM, a TGI (A549 NSCLC) greater than 100 µM and a TGI (MDA-MB-435) greater than 100 µM.
Compound `CN(O)C(=O)c1cccc(Cl)c1` has a TGI (SR leukemia) greater than 100 µM, a TGI (KM12 colon) greater than 100 µM and a TGI (EKVX NSCLC) greater than 100 µM. For the same compound, the TGI (SK-MEL-28 melanoma) was greater than 100 µM, the TGI (SN12C renal) was greater than 100 µM and the TGI (RXF 393 renal) was greater than 100 µM. It also gave a TGI (NCI-H226 lung) greater than 100 µM, a TGI (HT29 colon) greater than 100 µM and a TGI (MDA-N) greater than 100 µM. For the same compound, the TGI (HOP-62 NSCLC) was greater than 100 µM, the TGI (OVCAR-8 ovarian) was greater than 100 µM and the TGI (A498 renal) was greater than 100 µM. For the same compound, the TGI (OVCAR-5 ovarian) was greater than 100 µM, the TGI (SW-620 colon) was greater than 100 µM and the TGI (NCI/ADR-RES ovarian) was greater than 100 µM. For the same compound, the TGI (OVCAR-3 ovarian) was greater than 100 µM, the TGI (NCI-H23 lung) was greater than 100 µM and the TGI (IGROV1 ovarian) was greater than 100 µM. It also gave a TGI (UACC-257 melanoma) greater than 100 µM, a TGI (K-562 leukemia) greater than 100 µM and a TGI (U251 CNS) greater than 100 µM. It also gave a TGI (UACC-62 melanoma) greater than 100 µM, a TGI (SNB-75 CNS) greater than 100 µM and a TGI (CCRF-CEM leukemia) greater than 100 µM. The TGI (HCT-15 colon) was greater than 100 µM, the TGI (SF-539 CNS) was greater than 100 µM and the TGI (LOX IMVI melanoma) was greater than 100 µM. For the same compound, the TGI (PC-3 prostate) was greater than 100 µM, the TGI (HCT-116 colon) was greater than 100 µM and the TGI (MCF7 breast) was greater than 100 µM. It also gave a TGI (786-0 renal) greater than 100 µM, a TGI (MDA-MB-231 breast) greater than 100 µM and a TGI (NCI-H460 lung) greater than 100 µM. For the same compound, the TGI (COLO 205 colon) was greater than 100 µM, the TGI (DU-145 prostate) was greater than 100 µM and the TGI (HS 578T breast) was greater than 100 µM. It also gave a TGI (SNB-19 CNS) greater than 100 µM, a TGI (SK-MEL-5 melanoma) greater than 100 µM and a TGI (ACHN renal) greater than 100 µM. It also gave a TGI (M14 melanoma) greater than 100 µM, a TGI (TK-10 renal) greater than 100 µM and a TGI (SF-295 CNS) greater than 100 µM. The TGI (T-47D breast) was greater than 100 µM, the TGI (RPMI-8226 leukemia) was greater than 100 µM and the TGI (BT-549 breast) was greater than 100 µM. The TGI (NCI-H522 lung) was greater than 100 µM, the TGI (MOLT-4 leukemia) was greater than 100 µM and the TGI (SK-MEL-2 melanoma) was greater than 100 µM. The TGI (SF-268 CNS) was greater than 100 µM, the TGI (OVCAR-4 ovarian) was greater than 100 µM and the TGI (CAKI-1 renal) was greater than 100 µM. For the same compound, the TGI (HCC-2998 colon) was greater than 100 µM, the TGI (HOP-92 NSCLC) was greater than 100 µM and the TGI (SK-OV-3 ovarian) was greater than 100 µM. It also gave a TGI (UO-31 renal) greater than 100 µM, a TGI (HL-60(TB) leukemia) greater than 100 µM and a TGI (A549 NSCLC) greater than 100 µM. It also gave a TGI (MDA-MB-435) greater than 100 µM.
